In paper PMC10238102, “Anti-SARS-CoV-2 Activity of Adamantanes In Vitro and in Animal Models of Infection” (COVID, 2022):
“Also recorded” adds a separate entry of the source. Where two headings read alike, the source gives them in different places.

Columns and labels:
SARS-CoV-2 WA/01 [1] = assay: SARS-CoV-2 WA/01 immunostaining assay in ACE2-A549 cells; type: cell-based; conditions: MOI 0.1, anti-spike staining, 3 DPI (Figure 2A)
ACE2-A549 cells [2] = assay: CellTiter-Glo cell viability assay in ACE2-A549 cells
icSARS-CoV-2-mNG [3] = assay: microbe, parasite or virus in culture; type: cell-based, SARS-CoV-2
SARS-CoV-2 ORF10 = system: SARS-CoV-2 ORF10; parameters: method as in PMID 34893762; conditions: expressed in X. laevis oocytes; cited from earlier work
SARS-CoV-2 protein E = system: SARS-CoV-2 protein E; parameters: method as in PMID 34893762; conditions: expressed in X. laevis oocytes; cited from earlier work
[4] = Cell viability (CC50) in Vero E6-TMPRSS2-T2A-ACE2 cells; type: cell-based; conditions: African green monkey, Vero E6 T/A cells, Figure 3
[5] = system: Influenza A/Hong Kong/8/68 (H3N2); assay: microbe, parasite or virus in culture; type: cell-based
[6] = cited from earlier work
SARS-CoV-2 [7] = assay: Summary of in vitro assays in human lung epithelial cells expressing ACE2; type: cell-based; conditions: Severe acute respiratory syndrome coronavirus 2, Epithelial cell, read-out: IC50 values (summary range)
icSARS-CoV-2-mNG [8] = assay: microbe, parasite or virus in culture; type: cell-based, SARS-CoV-2; conditions: Severe acute respiratory syndrome coronavirus 2, read-out: IC50 (virus titer by plaque assay)
[9] = cited from earlier work; remark: listed apart in the source
in vitro = conditions: human
SARS-CoV-2 WA/01 [10] = assay: Golden Syrian hamster infection model, lung virus titer by plaque assay; type: in vivo, golden Syrian hamsters; conditions: 60 mg/kg i.p. every 12 h from 24 h before infection, 4 DPI
Description: The golden Syrian hamster experiment was performed by Dr. Anthony Griffith’s team at the Boston University School of Medicine. Adult hamsters (3 males and 3 females per group) were administered with antiviral compounds i.p. starting 24 h prior to infection until completion of the study. Hamsters were infected with SARS-CoV-2 WA/01 i.n. (4 × 10^4 PFU in 100 μL). At 4 DPI, hamsters underwent euthanasia and their lungs were collected to perform plaque assays to measure virus titer in the tissues. Lung tissue from each hamster was stored at −80 °C prior to titer. Tissues were removed from −80 °C and thawed at 4 °C before being weighed and cut to a weight ≤100 mg. Each tissue sample was then homogenized using a TissueLyser II (Qiagen, Germantown, MD, USA) in a final volume of 1 mL using DMEM/2% FBS/antibiotic-antimycotic (Gibco™). Each tissue homogenate was then diluted and 200 μL of each dilution or control was added to confluent monolayers of Vero E6 cells in duplicate and incubated for 1 h at 37 °C and 5% CO2. The plates were gently rocked every 5–10 min to prevent monolayer drying. […]

SARS-CoV-2 WA/01 [11] = assay: SARS-CoV-2 WA/01 antiviral assay in Vero E6 cells; type: cell-based; conditions: Severe acute respiratory syndrome coronavirus 2, Vero C1008, strain WA/01
SARS-CoV-2 [12] = conditions: obtained by Zhou et al.; cited from earlier work
[13] = CellTiter-Glo cell viability assay in ACE2-A549 cells; conditions: human
[14] = Body weight and deaths of treated, infected BALB/c mice; conditions: 60 mg/kg i.n. every 12 h, n = 6 mice per group
ACE2-A549 cells [15] = conditions: human
[16] = Severe acute respiratory syndrome coronavirus 2, ACE2-A549 cells
[17] = Severe acute respiratory syndrome coronavirus 2

**Q.** What does the source list for `O=c1nc(NO)ccn1[C@@H]1O[C@H](CO)[C@@H](O)[C@H]1O` [EIDD-1931]?
**A.** IC50 (SARS-CoV-2 WA/01 [1]; ACE2-A549 cells, read-out: IC50): 0.36 µM; CC50 (ACE2-A549 cells [2]; Figure 1A): 130 µM; CC50 (ACE2-A549 cells [2]; Figure 2A): 100 µM; IC50 (icSARS-CoV-2-mNG [3]; read-out: IC50): 1.5 µM

**Q.** What does the source list for `NC12CC3CC(CC(C3)C1)C2` [amantadine]?
**A.** IC50 (SARS-CoV-2 WA/01 [1]; [16]): 136 µM; channel activity of ORF10 (SARS-CoV-2 ORF10): decreased channel activities; channel activity of protein E (SARS-CoV-2 protein E): decreased channel activities; CC50 at 48 h [4]: ≥ 1000 µM; IC50 [5]: 0.46 µM; ratio of nasal mucus to plasma concentration, compared with rimantadine ([6]; after single 200-mg doses): about two-fold higher; concentration in autopsy lung tissue relative to serum concentration ([6]; autopsy lung tissue from an infant): 14 times; Cmax ([6]; multiple dose, 258 mg extended-release tablet once daily): 4.16 µM; IC50 (SARS-CoV-2 [7]): 120 to 130 µM; IC50 (icSARS-CoV-2-mNG [8]): 34.6 µM; Cmax ([9]; read-out: Cmax plasma level, mice, single-dose i.p. injection of 60 mg/kg): 47 µM; CC50 (in vitro): ≥ 1000 µM; lung virus titer vs no-drug control (SARS-CoV-2 WA/01 [10]): did not significantly inhibit; IC50 (icSARS-CoV-2-mNG [3]): 120 µM; IC50 (icSARS-CoV-2-mNG [3]; [17]): 120 µM; IC50 (SARS-CoV-2 WA/01 [11]): 413 µM; IC50 (SARS-CoV-2 [12]): 116 µM

**Q.** Which results are given for `NC(N)=NC(=O)c1nc(Cl)c(N2CCCCCC2)nc1N` [hexamethylene-amiloride]?
**A.** channel activity of ORF10 (SARS-CoV-2 ORF10): decreased channel activities; channel activity of protein E (SARS-CoV-2 protein E): decreased channel activities

**Q.** With `CCC(CC)COC(=O)[C@H](C)N[P@](=O)(OC[C@H]1O[C@@](C#N)(c2ccc3c(N)ncnn23)[C@H](O)[C@@H]1O)Oc1ccccc1` [remdesivir] as the compound, how does the IC50 (SARS-CoV-2 WA/01 [1]; [16]) read?
**A.** 0.04 µM

**Q.** And the CC50 at 48 h [4]?
**A.** ≥ 10 µM

**Q.** What about the CC50 [13] of the same compound?
**A.** ≥ 3 µM

**Q.** And the IC50 (icSARS-CoV-2-mNG [3]; [17])?
**A.** 0.08 µM

**Q.** Which IC50 (SARS-CoV-2 WA/01 [1]; [16]) does the source give for `CC(N)C12CC3CC(CC(C3)C1)C2` (centres unmarked) [rimantadine] here?
**A.** 34 µM

**Q.** What about the “channel activity of protein E” value (SARS-CoV-2 protein E) of the same compound?
**A.** not reported to be inhibited

**Q.** And the CC50 at 48 h [4]?
**A.** ≥ 300 µM

**Q.** And the “mice found dead within 1 DPI” value [14]?
**A.** Two

**Q.** And the IC50 [5]?
**A.** 0.05 µM

**Q.** And the Cmax ([6]; in vivo, 100 mg)?
**A.** 0.54 to 2.17 µM

**Q.** And the IC50 (SARS-CoV-2 [7])?
**A.** 30 to 40 µM

**Q.** What about the IC50 (icSARS-CoV-2-mNG [8]) of the same compound?
**A.** 12.6 µM

**Q.** And the Cmax ([9]; mouse, in vivo, po, 40 mg/kg)?
**A.** 9.3 µM

**Q.** And the CC50 (in vitro)?
**A.** ≥ 300 µM

**Q.** What about the “lung virus titer vs no-drug control” value (SARS-CoV-2 WA/01 [10]) of the same compound?
**A.** modestly but significantly inhibited; also recorded: mild but significant antiviral effect

**Q.** What about the IC50 (icSARS-CoV-2-mNG [3]) of the same compound?
**A.** 29.8 µM

**Q.** And the IC50 (icSARS-CoV-2-mNG [3]; [17])?
**A.** 30 µM

**Q.** What about the IC50 (SARS-CoV-2 WA/01 [11]) of the same compound?
**A.** 121 µM

**Q.** And the IC50 (SARS-CoV-2 [12])?
**A.** 36 µM

**Q.** With `CN(C)CCOCC(=O)NC12CC3CC(CC(C3)C1)C2` [tromantadine] as the compound, how does the IC50 (SARS-CoV-2 WA/01 [1]; [16]) read?
**A.** 56 µM

**Q.** What about the IC50 [5] of the same compound?
**A.** 94.2 µM

**Q.** And the CC50 (ACE2-A549 cells [15])?
**A.** 305 µM

**Q.** And the IC50 (SARS-CoV-2 [7])?
**A.** 60 to 100 µM

**Q.** What about the IC50 (icSARS-CoV-2-mNG [8]) of the same compound?
**A.** 88.9 µM

**Q.** What about the CC50 (in vitro) of the same compound?
**A.** 312 µM

**Q.** What about the IC50 (icSARS-CoV-2-mNG [3]) of the same compound?
**A.** 97.6 µM

**Q.** And the IC50 (icSARS-CoV-2-mNG [3]; [17])?
**A.** 98 µM
